Data on 26 compounds can be found in patent US9598440B2, “Inhibitors of IRAK4 activity” (MERCK SHARP & DOHME CORP., priority 2012, dated 2017).

Each structure is given as a SMILES string.

Chain of IRAK4 (Q9NWZ3 whole entry): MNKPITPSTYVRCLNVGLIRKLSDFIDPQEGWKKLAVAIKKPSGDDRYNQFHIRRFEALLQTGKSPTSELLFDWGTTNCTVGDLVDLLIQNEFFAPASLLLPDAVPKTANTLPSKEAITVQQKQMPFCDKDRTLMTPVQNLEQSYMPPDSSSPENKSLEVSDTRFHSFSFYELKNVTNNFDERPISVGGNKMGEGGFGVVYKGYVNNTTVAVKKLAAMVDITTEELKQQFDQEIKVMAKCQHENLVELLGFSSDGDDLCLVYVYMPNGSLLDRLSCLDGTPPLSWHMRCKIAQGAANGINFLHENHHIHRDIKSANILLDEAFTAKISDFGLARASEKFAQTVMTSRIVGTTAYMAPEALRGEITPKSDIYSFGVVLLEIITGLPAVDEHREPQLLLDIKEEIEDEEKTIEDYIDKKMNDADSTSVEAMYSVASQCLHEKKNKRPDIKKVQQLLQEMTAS

The target of the assay is IRAK4 (Homo sapiens (Human), UniProt Q9NWZ3). The assay is described as follows: Determination of IRAK4 kinase activity (IMAP fluorescence polarization, phosphorylation of fluorescent peptide substrate). The format is biochemical. Conditions: 0.5 nM GST tagged IRAK4, 100 nM peptide substrate RP7030, 100 μM ATP, 30 minutes at 25° C. An outline of the steps:
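GST-tagged IRAK4 (0.5 nM) phosphorylated 100 nM fluorescent peptide substrate with 100 µM ATP in Tris-HCl pH 7.2, 1 mM MgCl2, 1 mM DTT, 0.01% Tween 20 for 30 min at 25 °C. Phosphorylation read by IMAP nanoparticle binding as fluorescence polarization increase.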
In general, IC50 refers to the concentration that gives 50% inhibition. Compound `Cc1nc(NCCCN2CCN(C)CC2)nc(N[C@@H]2C[C@H](CO)[C@@H](O)[C@H]2O)c1-c1nc2ccccc2s1` [Example 89, (1R,2S,3R,5R)-3-((5-(benzo[d]thiazol-2-yl)-6-methyl-2-((3-(4-methylpiperazin-1-yl)propyl)amino)pyrimidin-4-yl)amino)-5-(hydroxymethyl)cyclopentane-1,2-diol] had an IC50 of 6090 nM.
To `Cc1nc(NC2CC2)nc(N[C@@H]2C[C@H](CO)[C@@H](O)[C@H]2O)c1-c1nc2ccccc2s1` [Example 90, (1R,2S,3R,5R)-3-((5-(benzo[d]thiazol-2-yl)-2-(cyclopropylamino)-6-methylpyrimidin-4-yl)amino)-5-(hydroxymethyl)cyclopentane-1,2-diol] belongs 5030 nM; to `Cc1nc(N2CCC(N)CC2)nc(N[C@@H]2C[C@H](CO)[C@@H](O)[C@H]2O)c1-c1nc2ccccc2s1` [Example 92, (1R,2S,3R,5R)-3-((2-(4-aminopiperidin-1-yl)-5-(benzo[d]thiazol-2-yl)-6-methylpyrimidin-4-yl)amino)-5-(hydroxymethyl)cyclopentane-1,2-diol], 11400 nM.
To `Cc1nc(NCC2CCNCC2)nc(N[C@@H]2C[C@H](CO)[C@@H](O)[C@H]2O)c1-c1nc2ccccc2s1` [Example 93, (1R,2S,3R,5R)-3-((5-(benzo[d]thiazol-2-yl)-6-methyl-2-((piperidin-4-ylmethyl)amino)pyrimidin-4-yl)amino)-5-(hydroxymethyl)cyclopentane-1,2-diol] belongs 13100 nM.
Regarding `COc1cccc(Nc2nc(C)c(-c3nc4ccccc4s3)c(N[C@@H]3C[C@H](CO)[C@@H](O)[C@H]3O)n2)c1` [Example 94, (1R,2S,3R,5R)-3-((5-(benzo[d]thiazol-2-yl)-2-((3-methoxyphenyl)amino)-6-methylpyrimidin-4-yl)amino)-5-(hydroxymethyl)cyclopentane-1,2-diol], the midpoint of inhibition, the IC50, lay at 870 nM.
Take `Cc1nc(N)nc(N[C@@H]2C[C@H](CO)[C@@H](O)[C@H]2O)c1-c1nc(Br)cs1` [Example 95, (1R,2S,3R,5R)-3-((2-amino-5-(4-bromothiazol-2-yl)-6-methylpyrimidin-4-yl)amino)-5-(hydroxymethyl)cyclopentane-1,2-diol]: inhibition was half-maximal at 4650 nM (IC50).
To `Cc1nc(Nc2ccccn2)nc(N[C@@H]2C[C@H](CO)[C@@H](O)[C@H]2O)c1-c1nc2ccccc2s1` [Example 97, (1R,2S,3R,5R)-3-((5-(benzo[d]thiazol-2-yl)-6-methyl-2-(pyridin-2-ylamino)pyrimidin-4-yl)amino)-5-(hydroxymethyl)cyclopentane-1,2-diol] belongs 11300 nM.
Next, `Cc1nc(N2CCC(C)CC2)nc(N[C@@H]2C[C@H](CO)[C@@H](O)[C@H]2O)c1-c1nc2ccccc2s1` [Example 98, (1R,2S,3R,5R)-3-((5-(benzo[d]thiazol-2-yl)-6-methyl-2-(4-methylpiperidin-1-yl)pyrimidin-4-yl)amino)-5-(hydroxymethyl)cyclopentane-1,2-diol]: 948 nM; `Cc1nc(Nc2cccnc2)nc(N[C@@H]2C[C@H](CO)[C@@H](O)[C@H]2O)c1-c1nc2ccccc2s1` [Example 99, (1R,2S,3R,5R)-3-((5-(benzo[d]thiazol-2-yl)-6-methyl-2-(pyridin-3-ylamino)pyrimidin-4-yl)amino)-5-(hydroxymethyl)cyclopentane-1,2-diol]: 292 nM; `Cc1cc(Nc2nc(C)c(-c3nc4ccccc4s3)c(N[C@@H]3C[C@H](CO)[C@@H](O)[C@H]3O)n2)ccn1` [Example 100, (1R,2S,3R,5R)-3-((5-(benzo[d]thiazol-2-yl)-6-methyl-2-((2-methylpyridin-4-yl)amino)pyrimidin-4-yl)amino)-5-(hydroxymethyl)cyclopentane-1,2-diol]: 138 nM.
Next, `Cc1nc(N)nc(N[C@@H]2C[C@H](CO)[C@@H](O)[C@H]2O)c1-c1nc2ccccc2o1` [Example 101, (1R,2S,3R,5R)-3-((2-amino-5-(benzo[d]oxazol-2-yl)-6-methylpyrimidin-4-yl)amino)-5-(hydroxymethyl)cyclopentane-1,2-diol]: 992 nM; `Cc1nc(Nc2cccc(C(N)=O)c2)nc(N[C@@H]2C[C@H](CO)[C@@H](O)[C@H]2O)c1-c1nc2ccccc2s1` [Example 102, 3-((5-(benzo[d]thiazol-2-yl)-4-(((1R,2S,3R,4R)-2,3-dihydroxy-4-(hydroxymethyl)cyclopentyl)amino)-6-methylpyrimidin-2-yl)amino)benzamide]: 142 nM; `Cc1nc(Nc2ccc(O)cc2)nc(N[C@@H]2C[C@H](CO)[C@@H](O)[C@H]2O)c1-c1nc2ccccc2s1` [Example 103, (1R,2S,3R,5R)-3-((5-(benzo[d]thiazol-2-yl)-2-((4-hydroxyphenyl)amino)-6-methylpyrimidin-4-yl)amino)-5-(hydroxymethyl)cyclopentane-1,2-diol]: 243 nM.
In the case of `Cc1nc(Nc2cccc(O)c2)nc(N[C@@H]2C[C@H](CO)[C@@H](O)[C@H]2O)c1-c1nc2ccccc2s1` [Example 104, (1R,2S,3R,5R)-3-((5-(benzo[d]thiazol-2-yl)-2-((3-hydroxyphenyl)amino)-6-methylpyrimidin-4-yl)amino)-5-(hydroxymethyl)cyclopentane-1,2-diol], the 50% inhibitory concentration (IC50) was determined as 219 nM.
As to `COc1cc(Nc2nc(C)c(-c3nc4ccccc4s3)c(N[C@@H]3C[C@H](CO)[C@@H](O)[C@H]3O)n2)ccn1` [Example 105, (1R,2S,3R,5R)-3-((5-(benzo[d]thiazol-2-yl)-2-((2-methoxypyridin-4-yl)amino)-6-methylpyrimidin-4-yl)amino)-5-(hydroxymethyl)cyclopentane-1,2-diol], it took 93 nM to reach half-maximal inhibition (IC50).
To `Cc1nc(Nc2cccc(Cl)c2)nc(N[C@@H]2C[C@H](CO)[C@@H](O)[C@H]2O)c1-c1nc2ccccc2s1` [Example 106, (1R,2S,3R,5R)-3-((5-(benzo[d]thiazol-2-yl)-2-((3-chlorophenyl)amino)-6-methylpyrimidin-4-yl)amino)-5-(hydroxymethyl)cyclopentane-1,2-diol] belongs 519 nM.
To `Cc1cc(Nc2nc(C)c(-c3nc4ccccc4s3)c(N[C@@H]3C[C@H](C(C)(C)O)[C@@H](O)[C@H]3O)n2)cc(C)n1` [Example 107, 5-(benzo[d]thiazol-2-yl)-6-(((1R,2S,3R,4S)-2,3-dihydroxy-4-(2-hydroxypropan-2-yl)cyclopentyl)amino)-2-((2,6-dimethylpyridin-4-yl)amino)-4-methylpyrimidine] belongs 8 nM.
To `Cc1cc(Nc2ncc(-c3nc4ccccc4s3)c(N[C@H]3C[C@@H](CO)[C@H](O)[C@@H]3O)n2)cc(C)n1` [Example 108, 5-(benzo[d]thiazol-2-yl)-6-(((1S,2R,3 S,4S)-2,3-dihydroxy-4-(hydroxymethyl)cyclopentyl)amino)-2-((2,6-dimethylpyridin-4-yl)amino)pyrimidine] belongs 384 nM; to `Cc1cc(Nc2ncc(-c3ccc4ccccc4n3)c(N[C@@H]3C[C@H](C(C)(C)O)[C@@H](O)[C@H]3O)n2)ccn1` [Example 124, 6-(((1R,2S,3R,4R)-2,3-dihydroxy-4-(2-hydroxypropan-2-yl)cyclopeltyl)amino)-2-((2-methylpyridin-4-yl)amino)-5-(quinolin-2-yl)pyrimidine], 0.2 nM.
Take `Cc1cc(Nc2ncc(-c3nc4ccccc4s3)c(N[C@@H]3C[C@H](C(C)(C)O)[C@@H](O)[C@H]3O)n2)ccn1` [Example 127, (1R,2S,3R,5S)-3-((5-(benzo[d]thiazol-2-yl)-2-((2-methylpyridine-4-yl)amino)pyrimidin-4-yl)amino)-5-(2-hydroxypropan-2-yl)cyclopentane-1,2-diol]: the IC50 came out at 16 nM.
To `CC(C)(O)[C@H]1C[C@@H](Nc2nc(NC3CCC3)ncc2-c2nc3ccccc3s2)[C@H](O)[C@@H]1O` [Example 128, (1R,2S,3R,5S)-3-((5-(benzo[d]thiazol-2-yl)-2-(cyclobutylamino)pyrimidin-4-yl)amino)-5-(2-hydroxypropan-2-yl)cyclopentane-1,2-diol] belongs 50 nM; to `CC(C)(O)[C@H]1C[C@@H](Nc2nc(Nc3cccc(C(N)=O)c3)ncc2-c2nc3ccccc3s2)[C@H](O)[C@@H]1O` [Example 129, 3-((5-(benzo[d]thiazol-2-yl)-4-(((1R,2S,3R,4S)-2,3-dihydroxy-4-(2-hydroxypropan-2-yl)cyclopentyl)amino)pyrimidin-2-yl)amino)benzamide], 1.4 nM.
Next, `CC(C)(O)[C@H]1C[C@@H](Nc2nc(N)ncc2-c2nc3ccccc3s2)[C@H](O)[C@@H]1O` [Example 130, (1R,2S,3R,5S)-3-((2-amino-5-(benzo[d]thiazol-2-yl)pyrimidin-4-yl)amino)-5-(2-hydroxypropan-2-yl)cyclopentane-1,2-diol]: 23 nM; `CC(C)(O)[C@H]1C[C@@H](Nc2nc(NC3CCN(S(C)(=O)=O)CC3)ncc2-c2nc3ccccc3s2)[C@H](O)[C@@H]1O` [Example 131, (1R,2S,3R,5S)-3-((5-(benzo[d]thiazol-2-yl)-2-((1-(methylsulfonyl)piperidin-4-yl)amino)pyrimidin-4-yl)amino)-5-(2-hydroxypropan-2-yl)cyclopentane-1,2-diol]: 382 nM.
To `Cc1csc(-c2cnc(N)nc2N[C@@H]2C[C@H](C(C)(C)O)[C@@H](O)[C@H]2O)n1` [Example 132, (1R,2S,3R,5S)-3-((2-amino-5-(4-methylthiazol-2-yl)pyrimidin-4-yl)amino)-5-(2-hydroxypropan-2-yl)cyclopentane-1,2-diol] belongs 54 nM; to `Cc1cc(Nc2ncc(-c3nc(C)cs3)c(N[C@@H]3C[C@H](C(C)(C)O)[C@@H](O)[C@H]3O)n2)cc(C)n1` [Example 133, (1R,2S,3R,5S)-3-((2-((2,6-dimethylpyridin-4-yl)amino)-5-(4-methylthiazol-2-yl)pyrimidin-4-yl)amino)-5-(2-hydroxypropan-2-yl)cyclopentane-1,2-diol], 0.2 nM.
